Source: patent publication US9040749B2, “Borazine derivatives” (UNIVERSITE DE NAMUR, priority 2011, dated 2015)

Tests used:
[1] = Stability at air and room temperature, NMR spectra at t=0 and t=10 months; format: physicochemical; details: NMR spectra at t=0 and t=10 months (FIG. 5)
[2] = Solubility in organic solvents; format: physicochemical

Row | SMILES | Stability at air and room temperature [1] | Solubility ([2]; solvent: Chloroform) | Solubility ([2]; solvent: Dichloromethane) | Solubility ([2]; solvent: Ethyl acetate) | Solubility ([2]; solvent: Toluene) | Solubility (miscibility) ([2]; compound is an oil, toluene, ethyl acetate, dichloromethane, benzene and chloroform)
1 | Cc1cc(C)c(B2N(c3ccccc3)B(c3c(C)cc(C)cc3C)N(c3ccccc3)B(c3c(C)cc(C)cc3C)N2c2ccccc2)c(C)c1 [borazine derivative 1, N,N′,N″-triphenyl-B,B,B″-tri(2,4,6-trimethyl)phenyl borazine] | excellent stability | 54 Milligram/milliliter | 102 Milligram/milliliter | 62 Milligram/milliliter | 45 Milligram/milliliter | –
2 | CCCCCCCCCCCCc1ccc(N2B(c3c(C)cc(C)cc3C)N(c3ccc(CCCCCCCCCCCC)cc3)B(c3c(C)cc(C)cc3C)N(c3ccc(CCCCCCCCCCCC)cc3)B2c2c(C)cc(C)cc2C)cc1 [borazine derivative 2, N,N′,N″-tri(4-dodecyl)phenyl-B,B,B″-tri(2,4,6-trimethyl)phenyl borazine] | – | – | – | – | – | miscible
